Data as given in patent US20050261164A1, “Remedy for urinary frequency and urinary incontinence” (FUJISAWA PHARMACEUTICAL CO., LTD., priority 2002, published 2005).
Counter-ions that a name gives are not always drawn.

System: rhythmic bladder contraction, male SD rats
Experiment: rhythmic bladder contraction model of a rat (frequent urination model)
Format: in vivo
Conditions: urethane-anesthetized male SD rats, intravenous, 0 to 10 minutes after the administration
Protocol: Male SD rats (7 to 10 weeks old, Japan SLC) were anesthetized with urethane (1 to 1.2 g/kg, intraperitoneal administration) and their lower abdomen were opened along the midline. After performing a small dissection at the apex of the bladder, a cannula (Hibiki, size 5) attached with a balloon of about 1 ml volume was inserted into the bladder. A cannula for drug administration (PE50, Becton Dickinson) was inserted into the femoral vein. The cannula for measuring intravesical pressure was connected to a pressure transducer attached with a three-way cock and water was injected into the balloon from a free opening of the three-way cock to cause rhythmic bladder contraction. The intravesical pressure at that time was recorded by a thermal recorder (Recti-Horiz8K, NEC Sanei) via an amplifier (AP-601G, Nihon Kohden). The bladder contractile frequency and force were measured every 10 minutes before the administration of a test compound and for 0 to 10 and 10 to 20 minutes after the administration. Statistical analysis was performed using randomized block analysis of variance and Dunnett's multiple comparison with respect to the measurement values obtained before the administration.

Compound	effect on bladder contractile force (3.2 mg/kg)	bladder contractile frequency, % of the value obtained before the administration (3.2 mg/kg, p<0.01) [%]	effect on bladder contractile force (1 mg/kg)	bladder contractile frequency, % of the value obtained before the administration (1 mg/kg, p<0.05) [%]
CC(C)c1ccc(C(=O)NC(=N)N)cc1S(C)(=O)=O.CS(=O)(=O)O [test compound 1, 4-isopropyl-3-methylsulfonylbenzoyl guanidine methanesulfonate]	without significantly affecting	25		
CN(C)CCNC(=O)c1cc(C(=O)N=C(N)N)cc(-c2cc(Cl)sc2Cl)c1 [test compound 2, [5-(2,5-dichlorothiophene-3-yl)-3-[(2-dimethylaminoethyl)carbamoyl]benzoyl]guanidine dihydrochloride]			without significantly affecting	22
(2,3-dihydro-9-methanesulfonyl-1-benzoxepin-4-carbonyl)guanidine dihydrochloride [test compound 3]			without significantly affecting	41
